Experimental data taken from US20240116985A1, “STAPLED PEPTIDES AND METHODS THEREOF” (priority 2020, published 2024).
Read-outs that look alike come from different tables or passages of the source.

Legend:
[1] = target: T1, full-length beta-Catenin (Uniprot ID P35222) (Homo sapiens, UniProt P35222); assay: Fluorescence polarization IC50 (beta-catenin / 5FAM-TCF4 10-53 competition); assay type: binding
T1 construct: 10 nM full-length beta-Catenin (Uniprot ID P35222)
T1 sequence (P35222 1-781): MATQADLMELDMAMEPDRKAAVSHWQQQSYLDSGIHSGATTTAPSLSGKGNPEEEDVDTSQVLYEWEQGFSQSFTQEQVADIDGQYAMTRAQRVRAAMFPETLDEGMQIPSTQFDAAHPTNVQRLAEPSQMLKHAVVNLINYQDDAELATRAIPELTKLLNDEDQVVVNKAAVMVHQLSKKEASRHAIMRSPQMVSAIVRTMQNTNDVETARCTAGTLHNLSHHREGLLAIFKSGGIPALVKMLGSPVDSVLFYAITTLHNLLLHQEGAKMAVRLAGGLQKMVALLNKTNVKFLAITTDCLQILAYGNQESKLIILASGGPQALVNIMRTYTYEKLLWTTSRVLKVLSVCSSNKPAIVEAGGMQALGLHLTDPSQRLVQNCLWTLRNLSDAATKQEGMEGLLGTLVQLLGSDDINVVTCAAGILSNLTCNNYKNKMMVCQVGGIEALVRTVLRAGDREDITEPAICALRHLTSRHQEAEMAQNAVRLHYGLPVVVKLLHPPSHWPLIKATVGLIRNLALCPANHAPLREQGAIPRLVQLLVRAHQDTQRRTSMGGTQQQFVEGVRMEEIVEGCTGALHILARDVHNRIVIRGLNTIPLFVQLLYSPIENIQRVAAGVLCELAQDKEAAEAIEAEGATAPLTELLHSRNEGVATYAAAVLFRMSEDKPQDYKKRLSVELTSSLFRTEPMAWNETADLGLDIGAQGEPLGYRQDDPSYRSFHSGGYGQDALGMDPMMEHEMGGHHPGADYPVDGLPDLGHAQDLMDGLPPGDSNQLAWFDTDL

CHI Log D procedure = assay type: physicochemical; conditions: for chromatographic logD: pH 7.4, CHI Log D; for CHI Log D: pH 7.4
[2] = target: T2, beta-catenin/TCF4 engagement (Homo sapiens, UniProt P35222); assay: Nano-BRET target engagement assay (B-cat-Halo & TCF4-Luc in HEK293 cells); assay type: cell-based
T2 construct: expressed in transfected cells; host or cells: HEK293
T2 sequence (P35222 1-781): T1 sequence (P35222 1-781)

[3] = absolute IC50, read-out: NanoBRET Abs IC50
[4] = fluorescence polarization, beta-catenin, read-out: FP EC50

| SMILES | IC50 ([1]; read-out: beta-Catenin FP IC50) | chromatographic logD (CHI Log D procedure) | IC50 [2, 3] | IC50 [1, 4] | CHI Log D (CHI Log D procedure) | IC50 ([2]; read-out: NanoBRET Abs IC50) | inhibition at 10 µM ([2]; HEK293, 10 uM, read-out: NanoBRET % inh @ 10 uM) | IC50 ([2]; read-out: NanoBRET IC50) | IC50 ([1]; fluorescence polarization, read-out: beta-Catenin FP IC50) |
| --- | --- | --- | --- | --- | --- | --- | --- | --- | --- |
| CC(=O)N1CCC[C@]12CC=CCCCC1(CCCC=CCCCOC(=O)N3CC[C@@](C(=O)N[C@@H](Cc4ccccc4Cl)C(=O)N[C@@H](Cc4csc5ccccc45)C(=O)N[C@@H](CCC(N)=O)C(N)=O)(C3)NC(=O)[C@H](Cc3ccccc3)NC(=O)[C@H](Cc3ccccc3)NC(=O)[C@H](C)NC(=O)[C@H](C)NC(=O)[C@H](CN(CC(=O)O)CC(F)(F)F)NC(=O)[C@H](CC(=O)O)NC1=O)NC(=O)[C@H](CC(C)(C)C)NC(=O)[C@H](CC(=O)O)NC2=O (stereo partly drawn) [I-923, Ac-PL3-Asp-Npg-B5-Asp-TfeGA-Ala-Ala-Phe-Phe-PyrS2-2C1F-BztA-Gln-NH2] | 27 nM | 2.46 | 6000 nM |  |  |  |  |  |  |
| CC(=O)N1CCC[C@]12CC=CCCCC1(CCCC=CCCCCOC(=O)N3CC[C@@](C(=O)N[C@@H](Cc4ccsc4)C(=O)N[C@@H](Cc4csc5ccccc45)C(=O)N[C@@H](Cc4c[nH]cn4)C(=O)N[C@@H](C)C(N)=O)(C3)NC(=O)[C@H](CC(N)=O)NC(=O)[C@H](Cc3ccccc3)NC(=O)[C@H](C)NC(=O)[C@H](C)NC(=O)[C@H](CC(=O)O)NC(=O)[C@H](CC(=O)O)NC1=O)NC(=O)[C@H](CC(C)(C)C)NC(=O)[C@H](CC(=O)O)NC2=O (stereo partly drawn) [I-827, Ac-PL3-Asp-Npg-B5-Asp-Asp-Ala-Ala-Phe-Asn-PyrS3-3Thi-BztA-His-Ala-NH2] | 13 nM |  |  | 13 nM | 2.1 | > 20000 nM |  |  |  |
| CC(=O)N1CCC[C@]12CC=CCCCC1(CCCC=CCCCOC(=O)N3CC[C@@](C(=O)N[C@@H](Cc4ccsc4)C(=O)N[C@@H](Cc4cn(C)c5ccccc45)C(=O)N[C@@H](Cc4c[nH]cn4)C(N)=O)(C3)NC(=O)[C@H](CC(N)=O)NC(=O)[C@H](Cc3ccccc3)NC(=O)[C@H](C)NC(=O)[C@H](C)NC(=O)[C@H](CC(=O)O)NC(=O)[C@H](CC(=O)O)NC1=O)NC(=O)[C@H](CC(C)(C)C)NC(=O)[C@H](CC(=O)O)NC2=O (stereo partly drawn) [I-799, Ac-PL3-Asp-Npg-B5-Asp-Asp-Ala-Ala-Phe-Asn-PyrS2-3Thi-1MeW-His-NH2] | 92 nM | 2.06 |  |  |  |  | 0.9% |  |  |
| CC(=O)N1CCC[C@]12CC=CCCCC1(CCCC=CCCCOC(=O)N3CC[C@@](C(=O)N[C@@H](Cc4ccccc4Cl)C(=O)N[C@@H](Cc4csc5ccccc45)C(=O)N[C@@H](C(N)=O)[C@H](C)O)(C3)NC(=O)[C@H](CO)NC(=O)[C@H](Cc3ccccc3)NC(=O)[C@H](C)NC(=O)[C@H](C)NC(=O)[C@H](CCC(=O)O)NC(=O)[C@H](CC(=O)O)NC1=O)NC(=O)[C@H](CC(C)(C)C)NC(=O)[C@H](CC(=O)O)NC2=O (stereo partly drawn) [I-1036, Ac-PL3-Asp-Npg-B5-Asp-Glu-Ala-Ala-Phe-Ser-PyrS2-2C1F-BztA-dThr-NH2] | 29 nM | 2.46 |  |  |  | 16600 nM |  |  |  |
| CC(=O)N1CCC[C@]12CC=CCCCC1(CCCC=CCCCOC(=O)N3CC[C@@](C(=O)N[C@@H](Cc4ccccc4Cl)C(=O)N[C@@H](Cc4csc5ccccc45)C(=O)N[C@@H](CCC(N)=O)C(N)=O)(C3)NC(=O)[C@H](CC(C)C)NC(=O)[C@H](Cc3ccccc3)NC(=O)[C@H](C)NC(=O)[C@H](C)NC(=O)[C@H](CC(=O)O)NC(=O)[C@H](CC(=O)O)NC1=O)NC(=O)[C@H](CC(C)(C)C)NC(=O)[C@H](CC(=O)O)NC2=O (stereo partly drawn) [I-1062, Ac-PL3-Asp-Npg-B5-Asp-Asp-Ala-Ala-Phe-Leu-PyrS2-2C1F-BztA-Gln-NH2] | 11 nM | 1.9 |  | 393 nM |  | 4700 nM |  |  |  |
| CC(=O)N1CCC[C@]12CC=CCCCC1(CCCC=CCCCCCC[C@@](C)(C(=O)N[C@@H](Cc3ccccc3Cl)C(=O)N[C@@H](Cc3csc4ccccc34)C(=O)N[C@@H](CCC(N)=O)C(N)=O)NC(=O)[C@H]([C@@H](C)O)NC(=O)[C@H](Cc3ccccc3)NC(=O)[C@H](C)NC(=O)[C@H](C)NC(=O)[C@H](CN(CC(=O)O)CC(F)(F)F)NC(=O)[C@H](CC(=O)O)NC1=O)NC(=O)[C@H](CC(C)(C)C)NC(=O)[C@H](CC(=O)O)NC2=O (stereo partly drawn) [I-930, Ac-PL3-Asp-Npg-B5-Asp-TfeGA-Ala-Ala-Phe-Thr-S8-2C1F-BztA-Gln-NH2] | 37 nM | 2.96 |  |  |  | 13500 nM |  | 5600 nM |  |
| CC[C@H](C)[C@@H]1NC(=O)[C@H](CN(CC(=O)O)CC(F)(F)F)NC(=O)[C@H](CC(=O)O)NC(=O)C2(CCCC=CCCCOC(=O)N3CC[C@@](C(=O)N[C@@H](Cc4ccccc4Cl)C(=O)N[C@@H](Cc4csc5ccccc45)C(=O)N[C@@H](CCC(N)=O)C(N)=O)(C3)NC(=O)[C@H](CC(N)=O)NC(=O)[C@H](Cc3ccccc3)NC(=O)[C@H](C)NC1=O)CCCC=CC[C@]1(CCCN1C(C)=O)C(=O)N[C@@H](CC(=O)O)C(=O)N[C@@H](CC(C)(C)C)C(=O)N2 (stereo partly drawn) [I-1010, Ac-PL3-Asp-Npg-B5-Asp-TfeGA-Ile-Ala-Phe-Asn-PyrS2-2C1F-BztA-Gln-NH2] | 8 nM | 2.36 | 13300 nM |  |  |  |  |  |  |
| CC(=O)N1CCC[C@]12CC=CCCCC1(CCCC=CCCCOC(=O)N3CC[C@@](C(=O)N[C@@H](Cc4ccccc4Cl)C(=O)N[C@@H](Cc4csc5ccccc45)C(=O)N[C@@H](CCC(N)=O)C(N)=O)(C3)NC(=O)[C@H](CC(N)=O)NC(=O)[C@H](Cc3ccccc3)NC(=O)[C@H](C)NC(=O)[C@H](CO)NC(=O)[C@H](CN(CC(=O)O)CC(F)(F)F)NC(=O)[C@H](CC(=O)O)NC1=O)NC(=O)[C@H](CC(C)(C)C)NC(=O)[C@H](CC(=O)O)NC2=O (stereo partly drawn) [I-1009, Ac-PL3-Asp-Npg-B5-Asp-TfeGA-Ser-Ala-Phe-Asn-PyrS2-2C1F-BztA-Gln-NH2] | 11 nM | 2.04 | 33300 nM |  |  |  |  |  |  |
| CC(=O)N1CCC[C@]12CC=CCCCC1(CCCC=CCCCOC(=O)N3CC[C@@](C(=O)N[C@@H](Cc4cccc(Cl)c4)C(=O)N[C@@H](Cc4csc5ccccc45)C(=O)N[C@@H](CCC(N)=O)C(N)=O)(C3)NC(=O)[C@H](CC(N)=O)NC(=O)[C@H](Cc3ccccc3)NC(=O)[C@H](C)NC(=O)[C@H](C)NC(=O)[C@H](CN(CC(=O)O)CC(F)(F)F)NC(=O)[C@H](CC(=O)O)NC1=O)NC(=O)[C@H](CC(C)(C)C)NC(=O)[C@H](CC(=O)O)NC2=O (stereo partly drawn) [I-926, Ac-PL3-Asp-Npg-B5-Asp-TfeGA-Ala-Ala-Phe-Asn-PyrS2-3C1F-BztA-Gln-NH2] | 43 nM |  |  | 43 nM | 2.406 |  |  | 17100 nM |  |
| C#CCOCCOCCOCCC(=O)NCCCC[C@H](NC(=O)[C@H](CCC(N)=O)NC(=O)[C@H](Cc1csc2ccccc12)NC(=O)[C@H](Cc1ccsc1)NC(=O)[C@]12CCN(C1)C(=O)OCCCC=CCCCC1(CCCC=CC[C@]3(CCCN3C(C)=O)C(=O)N[C@@H](CC(=O)O)C(=O)N[C@@H](CC(C)(C)C)C(=O)N1)C(=O)N[C@@H](CC(=O)O)C(=O)N[C@@H](CC(=O)O)C(=O)N[C@@H](C)C(=O)N[C@@H](C)C(=O)N[C@@H](Cc1ccccc1)C(=O)N[C@@H](CC(N)=O)C(=O)N2)C(N)=O (stereo partly drawn) [I-937, Ac-PL3-Asp-Npg-B5-Asp-Asp-Ala-Ala-Phe-Asn-PyrS2-3Thi-BztA-Gln-[PropynPEG3]Lys-NH2] | 9 nM | 1.94 |  |  |  | 28800 nM |  |  |  |
| CC(=O)N1CCC[C@]12CC=CCCCC1(CCCC=CCCCCOC(=O)N3CC[C@@](C(=O)N[C@@H](Cc4ccsc4)C(=O)N[C@@H](Cc4csc5ccccc45)C(=O)N[C@@H](Cc4c[nH]cn4)C(=O)N[C@H](C)C(N)=O)(C3)NC(=O)[C@H](CC(N)=O)NC(=O)[C@H](Cc3ccccc3)NC(=O)[C@H](C)NC(=O)[C@H](C)NC(=O)[C@H](CC(=O)O)NC(=O)[C@H](CC(=O)O)NC1=O)NC(=O)[C@H](CC(C)(C)C)NC(=O)[C@H](CC(=O)O)NC2=O (stereo partly drawn) [I-832, Ac-PL3-Asp-Npg-B5-Asp-Asp-Ala-Ala-Phe-Asn-PyrS3-3Thi-BztA-His-dAla-NH2] | 9 nM |  |  | 9 nM | 2.095 | 39800 nM |  |  |  |
| CC(=O)N1CCC[C@]12CC=CCCCC1(CCCC=CCCCOC(=O)N3CC[C@@](C(=O)N[C@@H](Cc4ccsc4)C(=O)N[C@@H](Cc4csc5ccccc45)C(=O)N[C@@H](CCC(N)=O)C(N)=O)(C3)NC(=O)[C@H](CC(N)=O)NC(=O)[C@H](Cc3ccccc3)NC(=O)[C@H](C)NC(=O)[C@H](C)NC(=O)[C@H](CN(CC(=O)O)CC(F)(F)F)NC(=O)[C@H](CC(=O)O)NC1=O)NC(=O)[C@H](CC(C)(C)C)NC(=O)C[C@H](CC(=O)O)NC2=O (stereo partly drawn) [I-1161, Ac-PL3-RbGlu-Npg-B5-Asp-TfeGA-Ala-Ala-Phe-Asn-PyrS2-3Thi-BztA-Gln-NH2] |  | 2.08 | > 20000 nM |  |  |  |  |  | 24 nM |
